Experiment: in vitro
Conditions: human, hela cells, % viability
In the case of `O=S(=O)(c1ccc(OC(F)(F)F)cc1)N1CCN(Cc2ccc3c(c2)OCO3)CC1` [CBK200040], the viability at 28.5 h, 10 µM is reported as 82.5%. Compound `COC(=O)c1sccc1NS(=O)(=O)c1ccc(C(F)(F)F)cc1` [CBK200041] has a viability at 28.5 h, 10 µM of 95.5%. `COC[C@@H]1CCCN1S(=O)(=O)c1ccc(C(C)C)cc1` [CBK200045] showed a viability at 28.5 h, 10 µM of 110%. For `O=[N+]([O-])c1ccc(S(=O)(=O)Nc2nnc(C3CCCCC3)s2)cc1` [CBK200049], the viability at 28.5 h, 10 µM was 94.8%. For `CCc1nnc(NS(=O)(=O)c2ccc(NCc3cc(Cl)ccc3O)cc2)s1` [CBK200051], the viability at 28.5 h, 10 µM was 100%. Work on `Cc1c(Cl)cccc1S(=O)(=O)Nc1nc(CSc2ccccn2)ns1` [CBK200054] yielded a viability at 28.5 h, 10 µM of 97.2%. For `O=C(OCCC1SC(NC2CC3C=CC2C3)=NC1=O)c1ccc(Cl)c(Cl)c1` (stereo not drawn) [CBK200056T], the viability at 28.5 h, 10 µM was 87.1%. Work on `O=C(OCCC1SC(NC2CC3C=CC2C3)=NC1=O)c1c(F)cccc1F` (stereo not drawn) [CBK200057T] yielded a viability at 28.5 h, 10 µM of 89.7%. In the case of `O=C(OCCC1SC(NC2CC3C=CC2C3)=NC1=O)c1cc(F)ccc1F` (stereo not drawn) [CBK200059T], the viability at 28.5 h, 10 µM is reported as 92.2%. `O=C(NCCC1SC(NC2CC3C=CC2C3)=NC1=O)c1ccccc1Cl` (stereo not drawn) [CBK200062] gave a viability at 28.5 h, 10 µM of 113%. With `CC(C)(C)c1ccc(S(=O)(=O)N2CCCC[C@H]2COC(=O)CCC(=O)O)cc1` [CBK200063] the viability at 28.5 h, 10 µM was 117%. For `CC(C)(C)c1ccc(S(=O)(=O)N2CCCC[C@H]2COC(=O)COCC(=O)O)cc1` [CBK200064], the viability at 28.5 h, 10 µM was 96.6%. In the case of `CC(C)(C)c1ccc(S(=O)(=O)N2CCCC[C@H]2CCOC(=O)c2ncccc2C(=O)O)cc1` [CBK200066], the viability at 28.5 h, 10 µM is reported as 98.7%. `CC(C)(C)c1ccc(S(=O)(=O)N2CCCC[C@H]2CCOC(=O)/C=C\C(=O)O)cc1` [CBK200069] gave a viability at 28.5 h, 10 µM of 89.6%. Work on `C=C(C)Cn1c(-c2ccccc2C)nnc1S(=O)(=O)CC(C)C` [CBK200074] yielded a viability at 28.5 h, 10 µM of 80%. Compound `C=C(C)Cn1c(SCC(C)C)nnc1-c1cnccc1C` [CBK200075T] has a viability at 28.5 h, 10 µM of 96%. With `Cc1ccccc1-c1nnc2n1CCCCC2` [CBK200076A] the viability at 28.5 h, 10 µM was 108%. Compound `C=C(C)Cn1c(SCC(C)C)nnc1-c1ccccc1F` [CBK200077] has a viability at 28.5 h, 10 µM of 107%. For `Cc1ccccc1-c1nnc(SC(C)C)n1CCNCCO` [CBK200084T], the viability at 28.5 h, 10 µM was 86.9%. In the case of `C=C(C)Cn1c(SCC(C)C)nnc1-c1ccc(F)cc1` [CBK200085], the viability at 28.5 h, 10 µM is reported as 99.9%. Work on `Cc1ccccc1-c1nnc(SC(C)C)n1CCN(C)S(C)(=O)=O` [CBK200088] yielded a viability at 28.5 h, 10 µM of 101%. Compound `Cc1ccccc1-c1nnc(SC(C)C)n1CCN(C)CC(F)(F)F` [CBK200090] has a viability at 28.5 h, 10 µM of 92.3%. For `CC(C)CSc1nnc(-c2ccccc2F)n1CC(C)C` [CBK200091], the viability at 28.5 h, 10 µM was 95.8%. For `Brc1ccccc1-c1nnc2n1CCCCC2` [CBK200092], the viability at 28.5 h, 10 µM was 90.9%. `COc1cc(C(C)c2cc3c(cc2O)OCO3)cc(OC)c1OC` (stereo not drawn) [CBK200103] showed a viability at 28.5 h, 10 µM of 36.3%. `COC(=O)C1Cc2cc3c(cc2C(c2cc(OC)c(OC)c(OC)c2)N1)OCO3` (stereo not drawn) [CBK200104T] gave a viability at 28.5 h, 10 µM of 65.5%. Compound `COc1cc2c(cc1C(C)c1ccc3c(c1)OCO3)OCO2` (stereo not drawn) [CBK200107] has a viability at 28.5 h, 10 µM of 97.4%. `COc1ccc(C(C)c2cc3c(cc2OCC(=O)O)OCO3)cc1` (stereo not drawn) [CBK200108] gave a viability at 28.5 h, 10 µM of 87.4%. `CC(c1ccc2c(c1)OCO2)c1cc2c(cc1OCCO)OCO2` (stereo not drawn) [CBK200110] showed a viability at 28.5 h, 10 µM of 98.9%. In the case of `O=C(O)Cc1sc(-c2ccc3c(c2)OCO3)nc1-c1ccccc1` [CBK200114], the viability at 28.5 h, 10 µM is reported as 87.3%. `Cc1onc(-c2ccccc2)c1C(=O)NCc1ccccc1` [CBK200116] showed a viability at 28.5 h, 10 µM of 99.4%. `Cc1ccc(C(=O)NC2CCCC2)cn1` [CBK200117] showed a viability at 28.5 h, 10 µM of 91.6%. With `O=C(NC1CCCC1)c1ccc2ncccc2c1` [CBK200118] the viability at 28.5 h, 10 µM was 90.2%. In the case of `CN1CCN(c2ccc(C(=O)NC3CCCC3)cc2)CC1` [CBK200119], the viability at 28.5 h, 10 µM is reported as 78.5%. For `O=C(OCc1cc2ccccc2cn1)N1CCOCC1` [CBK200121], the viability at 28.5 h, 10 µM was 102%. For `C[C@@H]1CN(C(=O)OCCn2cccc2)C[C@H](C)O1` [CBK200123], the viability at 28.5 h, 10 µM was 82.2%. In the case of `O=C(Nc1ccncc1)OCCc1cccnc1` [CBK200125], the viability at 28.5 h, 10 µM is reported as 94.2%. `Cc1cc(NC(=O)OCc2cccnc2C)c2ccccc2n1` [CBK200129] gave a viability at 28.5 h, 10 µM of 95.9%. For `Cc1ccc(CNC(=O)OCc2cccnc2C)o1` [CBK200131], the viability at 28.5 h, 10 µM was 99%. `O=C(NCc1ccc(C(F)(F)F)nc1)OCCc1ccncc1` [CBK200132] gave a viability at 28.5 h, 10 µM of 93.2%. `O=C(NCc1ccncc1)OCCc1ccncc1` [CBK200133] showed a viability at 28.5 h, 10 µM of 108%. In the case of `Cc1ncccc1COC(=O)N1c2ccc(F)cc2CCC1C` (stereo not drawn) [CBK200139], the viability at 28.5 h, 10 µM is reported as 92.2%. For `O=C(OCCc1ccncc1)N1CCc2ccccc21` [CBK200140], the viability at 28.5 h, 10 µM was 94.9%. With `O=C(OCCc1ccncc1)N1Cc2ccccc2C1` [CBK200141] the viability at 28.5 h, 10 µM was 95.5%. With `C[C@@H]1CN(C(=O)OCc2nccn2C)C[C@H](C)O1` [CBK200142] the viability at 28.5 h, 10 µM was 103%. With `COc1c(C)cnc(COC(=O)N2C[C@@H](C)O[C@@H](C)C2)c1C` [CBK200143] the viability at 28.5 h, 10 µM was 96.2%. `Cc1cc2nc(COC(=O)N3CCOCC3)[nH]c2cc1C` [CBK200144] showed a viability at 28.5 h, 10 µM of 107%. `COc1c(C)cnc(COC(=O)N2CCOCC2)c1C` [CBK200145] showed a viability at 28.5 h, 10 µM of 105%. Compound `O=C(OCc1nc2ccccc2[nH]1)N1CCOCC1` [CBK200146] has a viability at 28.5 h, 10 µM of 109%. `Cc1nc(-c2ccccc2)ncc1COC(=O)N1CCOCC1` [CBK200147] showed a viability at 28.5 h, 10 µM of 112%. Compound `Cc1ccsc1CNC(=O)OCC1CCN(C)CC1` [CBK200149] has a viability at 28.5 h, 10 µM of 96.9%. With `Cc1ncccc1COC(=O)N1CCSCC1` [CBK200156] the viability at 28.5 h, 10 µM was 104%. Work on `O=C(OCCc1ccncc1)N1CCCC(F)(F)C1` [CBK200157] yielded a viability at 28.5 h, 10 µM of 92.2%. Compound `O=C(OCCc1cccnc1)N1CCC(C(F)(F)F)CC1` [CBK200159] has a viability at 28.5 h, 10 µM of 94.9%. With `COC1CCN(C(=O)OCCc2cccnc2)CC1` [CBK200161] the viability at 28.5 h, 10 µM was 89.2%. With `O=C(OCc1cc2ccccc2o1)N1CCOCC1` [CBK200162] the viability at 28.5 h, 10 µM was 98.1%. Work on `O=C(OCc1ccc2sccc2c1)N1CCOCC1` [CBK200163] yielded a viability at 28.5 h, 10 µM of 101%. Work on `Cc1noc(C)c1C(=O)N1CCN(c2ccccc2)CC1` [CBK200165] yielded a viability at 28.5 h, 10 µM of 97.8%. With `O=C(c1nc2ccccc2[nH]1)N1CCN(c2ccccc2)CC1` [CBK200167] the viability at 28.5 h, 10 µM was 103%. Compound `Cn1cc(CC(=O)N2CCN(c3ccccc3)CC2)c2ccccc21` [CBK200168] has a viability at 28.5 h, 10 µM of 95.8%. `Cc1ncccc1C(=O)N1CCN(Cc2ccccc2)CC1` [CBK200171] showed a viability at 28.5 h, 10 µM of 97.7%. For `O=C(Cc1ccccn1)N1CCN(Cc2ccccc2)CC1` [CBK200174], the viability at 28.5 h, 10 µM was 103%. For `O=C(c1ccc2ncccc2c1)N1CCN(Cc2ccccc2)CC1` [CBK200175], the viability at 28.5 h, 10 µM was 99.1%. Compound `Cc1nc(C)c(C(=O)N2CCN(Cc3ccccc3)CC2)s1` [CBK200177] has a viability at 28.5 h, 10 µM of 101%. Work on `O=C(c1cnccn1)N1CCC(Cc2ccccc2)CC1` [CBK200181] yielded a viability at 28.5 h, 10 µM of 92.6%. Compound `O=C(Cc1cccnc1)N1CCC(Cc2ccccc2)CC1` [CBK200183] has a viability at 28.5 h, 10 µM of 97%. In the case of `O=C(c1ccc2ccccc2n1)N1CCC(Cc2ccccc2)CC1` [CBK200184], the viability at 28.5 h, 10 µM is reported as 96.4%. For `O=C(NCc1ccccc1)c1ccncc1` [CBK200189], the viability at 28.5 h, 10 µM was 108%. In the case of `O=C(NCc1ccccc1)c1ccnc2ccccc12` [CBK200191], the viability at 28.5 h, 10 µM is reported as 83.7%.

Reference: PMC12040169 (PLOS Biology, 2025)
